Measurements from US11827543B2, “Method for continuous supply of superoxide-containing peracetate oxidant solution” (Clean Chemistry, Inc., priority 2014, dated 2023).

Experiments:
[1] = system: acid producing bacteria (APB); experiment: Acid producing bacteria serial dilution culture (Intertek APB media); assay type: cell-based; conditions: produced water, Example 17, 30 min contact, no grow back
Description: The water's color rapidly turned orange and the ORP increased to about 700 mV vs SHE. During the first 5 to 10 minutes of slow mixing there was some floc formation. After 20 minutes stirring was ceased and the flocculated solids were allowed to settle, however the water remained hazy orange. […] The ATP concentration was reduced by about 93% from the untreated water concentration and the bioassay results indicated at least 4 log reductions in acid producing and sulfate reducing bacteria relative to the untreated water's ATP concentration (approximately 1.8×10^6 microbial equivalents per mL).
Water parameters were measured by a variety of methods. The pH was measured using a high sodium electrode (Oakton model 35805-05) with three point calibration and automatic temperature correction. The ORP (oxidative-reductive potential) of solutions was measured using an Oakton model 35805-15 ORP probe calibrated to the standard hydrogen electrode (SHE) using Thermo/Orion ORP standard 967901. Sodium ion concentration was measured using a Cole-Parmer ion selective electrode, EW-27504-30, with two point calibration of a sodium standard solution of NaCl. Chloride ion concentration was measured using a Cole-Parmer ion selective electrode, SC-27504-08, with two point calibration of a chloride standard solution of NaCl. All measurements using HACH methods were measured using a HACH DR900 colorimeter. Calcium, magnesium and total hardness concentrations were measured using HACH method 8030. Sulfate concentration was measured using HACH method 10248. Aluminum concentration was measured using HACH method 8012. Iron concentration was measured using HACH method 10249 modified with a longer reaction time to minimize interferences from organic impurities. Total suspended solids (TSS) concentration was measured using HACH method 8006 modified for smaller volumes. Turbidity was measured using HACH method 8237. […] Acid producing bacteria (ABP) and sulfate reducing bacteria (SRB) cell culture concentrations were measured with standard 1 mL serial dilutions using Intertek APB and SRB culture media, 1% salinity.

[2] = system: sulfate reducing bacteria (SRB); experiment: Sulfate reducing bacteria serial dilution culture (Intertek SRB media); assay type: cell-based; conditions: produced water, Example 17, 30 min contact, no grow back
[3] = ORP (oxidative-reductive potential) measurement of solutions and treated water; assay type: physicochemical; conditions: for ORP (mV vs SHE): early flowback water, Example 19, 1.7 mmol/L oxidant; for ORP (mV vs SHE), maximum: produced water
Description: Example 9: Hydrogen Peroxide Residual Concentration and interference. A sodium peracetate oxidant solution was produced according to the procedure in Example 4 and diluted to 2800 mg/L (28.5 mmol/L) with either distilled water, for clean water conditions, or tap water containing about 0.18 mg/L copper, which served as an activation catalyst. Some samples were spiked with 30 or 60 mg/L (0.88 or 1.76 mmol/L, respectively) hydrogen peroxide from a 1000 mg/L stock solution. […] The temperature of the samples was maintained at 25±2° C. with a heated water bath. The ORP response was monitored over time to observe the impact of adding low concentrations of hydrogen peroxide. The pH was measured using a high sodium electrode (Oakton model 35805-05) with three point calibration and automatic temperature correction. The ORP (oxidative-reductive potential) of solutions was measured using an Oakton model 35805-15 ORP probe calibrated to the standard hydrogen electrode (SHE) using Thermo/Orion ORP standard 967901.
(§1) Water parameters were measured by a variety of methods. The pH was measured using a high sodium electrode (Oakton model 35805-05) with three point calibration and automatic temperature correction. The ORP (oxidative-reductive potential) of solutions was measured using an Oakton model 35805-15 ORP probe calibrated to the standard hydrogen electrode (SHE) using Thermo/Orion ORP standard 967901. Sodium ion concentration was measured using a Cole-Parmer ion selective electrode, EW-27504-30, with two point calibration of a sodium standard solution of NaCl. Chloride ion concentration was measured using a Cole-Parmer ion selective electrode, SC-27504-08, with two point calibration of a chloride standard solution of NaCl. All measurements using HACH methods were measured using a HACH DR900 colorimeter. Calcium, magnesium and total hardness concentrations were measured using HACH method 8030. Sulfate concentration was measured using HACH method 10248. Aluminum concentration was measured using HACH method 8012. Iron concentration was measured using HACH method 10249 modified with a longer reaction time to minimize interferences from organic impurities. Total suspended solids (TSS) concentration was measured using HACH method 8006 modified for smaller volumes. Turbidity was measured using HACH method 8237. ATP (adenosine triphosphate) concentration was measured using the LuminUltra 2nd Generation metabolic ATP measurement technology with the LuminUltra Quench Gone-Organic Modified sampling method, a PhotonMaster Luminometer and LumiCalc software. Acid producing bacteria (ABP) and sulfate reducing bacteria (SRB) cell culture concentrations were measured with standard 1 mL serial dilutions using Intertek APB and SRB culture media, 1% salinity.

pH of treated water = assay type: physicochemical
Description: as §1

[4] = Jar test water parameters (hardness, calcium, magnesium, chloride, sodium, aluminum, iron, TSS, turbidity); conditions: produced water, Example 17; for Magnesium (mg/L as CaCO3): untreated 170; for Calcium (mg/L as CaCO3): untreated 1080; for Hardness (mg/L as CaCO3): untreated 1250
Description: The water sample was thoroughly mixed and 500 mL dispensed into 1 L beakers to conduct tests using a Phipps and Bird programmable jar tester. The jar tester was programmed for a rapid mix of high shear force at 295 rpm impeller speed for 1.25 minutes, followed by a low shear impeller speed of 25 rpm for 10 minutes to promote coalescence and floc formation. All tests were conducted at room temperature, 20-25° C. The 500 mL water samples were dosed with varying amounts of sodium peracetate oxidant solution during the rapid mix from an oxidant solution that was 2.1% wt/vol sodium peracetate (1.6% wt/vol measured as PAA). Also during the rapid mix the jar samples were dosed with 0.5 to 1 mg/L of an anionic polymer dispersion as a coalescence and floc aid.
Example 17: Oxidative clarification of suspended solids and metals. A produced water sample originating from the Denver-Julesburg basin formation in CO, USA contained suspended and dissolved solids, bacteria and up to about 2% salinity. The water sample was thoroughly mixed and 500 mL dispensed into 1 L beakers to conduct tests using a Phipps and Bird programmable jar tester. The jar tester was programmed for a rapid mix of high shear force at 295 rpm impeller speed for 1.25 minutes followed by a low shear impeller speed of 25 rpm for 20 minutes to promote floc formation and allow for pH and ORP monitoring prior to settling of solids. All tests were conducted at room temperature, 18-21° C. The 500 mL water samples were dosed with varying amounts of sodium peracetate oxidant solution during the rapid mix from an oxidant solution that was 2.2% wt/vol sodium peracetate (1.7% wt/vol measured as PAA). In some cases, during the rapid mix the jar samples were dosed with up to 5 mg/L of an anionic polymer dispersion as a floc aid.

[5] = Gel breaking of guar gum mixture; conditions: for Viscosity at 2 Hour Contact Time: 10 g/L guar gum, 35-40 °C
Description: Example 15: Gel Breaking ability for well squeeze to remove “polymer damage”. The use of the sodium peracetate oxidant formulation was tested for the depolymerization and break down of guar gum. […] The guar mixture was made by rapidly mixing 10 g/L food grade guar gum powder into a 10 g/L sodium chloride solution in distilled water. The blended mixture was heated to about 35-40° C. in a heated water bath for at least one hour to fully hydrate the guar. The mixture appeared translucent with fine, milky white suspended solids. […] The first was a control sample to which no oxidant was added. The remaining samples had increasing amounts of sodium peracetate oxidant added to them. The oxidant was prepared as described in Example 4 and the pH was adjusted to about 9.1 with sodium bisulfate before use. The oxidant was rapidly mixed with the guar mixture resulting in a pale yellow color. The mixtures were placed in a water bath at about 35-40° C. and the yellow color gradually faded away over the next hour. After two hours the samples were cooled to room temperature.

[6] = 29 mg/L, untreated >>10,000 cells/mL
[7] = Piceance produced water, pH 7.00, 22 °C, 500 mg/L initial dose

## CC(=O)O[O-].[Na+] [sodium peracetate oxidant, sodium peracetate]
[1]; 29 mg/L plus 5 mg/L floc aid
  APB (cells/mL and log reduction): 5 log (no grow
[1]; [6]
  APB (cells/mL and log reduction): 5 log (no grow
[1]; 52 mg/L
  APB (cells/mL and log reduction): 5 log (no grow
[2]; 29 mg/L plus 5 mg/L floc aid
  SRB (cells/mL and log reduction): 5 log (no grow
[2]; [6]
  SRB (cells/mL and log reduction): 5 log (no grow
[2]; 52 mg/L
  SRB (cells/mL and log reduction): 5 log (no grow
[3]; Piceance produced water, pH 7.00, 22 °C, 100 mg/L initial dose
  ORP, rapid initial increase: ~800 mV vs SHE
[3]; Piceance produced water, pH 7.00, 22 °C, 100 mg/L initial dose, after 120 minutes
  ORP after decline: about 470 mV
[3]; [7]
  ORP, later level: about 1040 mV vs SHE
  ORP, rapid initial increase: about 890 mV vs SHE
[3]; Piceance produced water, first 26 mg/L dose of sequential dosing
  ORP: more than 800 mV vs SHE
[3]; Piceance produced water, single dose 78 mg/L (60 mg/L as PAA)
  ORP maximum: 870 mV vs SHE
[3]; Piceance produced water, single dose 78 mg/L, in less than 60 minutes
  ORP: below 600 mV vs SHE
[3]; contact time 3 minutes
  ORP (mV vs SHE): 701 mV vs SHE
[3]; contact time 13 minutes
  ORP (mV vs SHE): 581 mV vs SHE
[3]; contact time 35 minutes
  ORP (mV vs SHE): 446 mV vs SHE
[3]; contact time 90 minutes
  ORP (mV vs SHE): 420 mV vs SHE
[3]; frac on the fly make-up water, about 15 minute contact time
  ORP of water drawn from the frac tanks: less than 500 mV
[3]; Example 17, 29 mg/L
  ORP (mV vs SHE), maximum: over 700 mV vs SHE
[3]; Example 17, 29 mg/L plus 5 mg/L floc aid
  ORP (mV vs SHE), maximum: over 700 mV vs SHE
[3]; Example 17, 29 mg/L plus 5 mg/L floc aid, listed as Sodium Peracetate Oxidant
  ORP (mV vs SHE), maximum: 770 mV vs SHE
[3]; Example 17, 29 mg/L, listed as Sodium Peracetate Oxidant
  ORP (mV vs SHE), maximum: 766 mV vs SHE
[3]; Example 17, 52 mg/L
  ORP (mV vs SHE), maximum: over 800 mV vs SHE
[3]; Example 17, 52 mg/L, listed as Sodium Peracetate Oxidant
  ORP (mV vs SHE), maximum: 809 mV vs SHE
[3]; Example 18, 0.30 mmol/L oxidant
  ORP (mV vs SHE), maximum: 766 mV vs SHE
pH of treated water; early flowback water, Example 19, 1.7 mmol/L oxidant, contact time 3 minutes
  pH: 6.83
pH of treated water; early flowback water, Example 19, 1.7 mmol/L oxidant, contact time 13 minutes
  pH: 6.87
pH of treated water; early flowback water, Example 19, 1.7 mmol/L oxidant, contact time 35 minutes
  pH: 6.88
pH of treated water; early flowback water, Example 19, 1.7 mmol/L oxidant, contact time 90 minutes
  pH: 6.89
pH of treated water; produced water (Denver-Julesburg), Example 17, 29 mg/L
  pH: 6.2
pH of treated water; produced water, Example 17, 29 mg/L plus 5 mg/L floc aid (Polymer B-40)
  pH: 6.3
pH of treated water; produced water, Example 17, 52 mg/L
  pH: 5.9
pH of treated water; produced water, Example 18, 0.30 mmol/L oxidant
  pH: 6.2
[4]; 29 mg/L plus 5 mg/L floc aid
  Magnesium (mg/L as CaCO3): 200 mg/L as CaCO3
  Calcium (mg/L as CaCO3): 940 mg/L as CaCO3
  Hardness (mg/L as CaCO3): 1140 mg/L as CaCO3
[4]; 52 mg/L
  Magnesium (mg/L as CaCO3): 200 mg/L as CaCO3
  Calcium (mg/L as CaCO3): 1020 mg/L as CaCO3
  Hardness (mg/L as CaCO3): 1220 mg/L as CaCO3
[5]; oxidant conc. 65 mg/L
  Viscosity at 2 Hour Contact Time: same as initial
[5]; oxidant conc. 220 mg/L
  Viscosity at 2 Hour Contact Time: slightly reduced
[5]; oxidant conc. 440 mg/L
  Viscosity at 2 Hour Contact Time: very reduced
[5]; about 65 mg/L oxidant, control lost viscosity overnight, biofilm after a week
  preservation of guar mixture on standing at room temperature: retained its original viscosity and milky color for at least a week
